In publication PMC5983452 (PLoS ONE, 2018):
“And” between values parts separate entries of the source, which are not always exact repeats. Equal entries are not always repeated. “Also recorded” adds a separate entry of the source. Structures can show the parent of a compound that is named as a salt. Where two headings read alike, the source gives them in different places.

Experiments:
[1] = Hepatocyte stability, mouse; assay type: in vitro ADME, CD-1 mice; settings: male, CD-1, mouse, cryopreserved hepatocytes, read-out: CLint measured with hepatocytes, Mouse
[2] = system: A549 cells; experiment: Trametinib growth inhibition in combination with EPZ028862; assay type: cell-based; settings: 2, 5 and 7 days
Excerpt: Plotted data is the average of three biological replicates. Error bars represent standard deviation. (PDF) Click here for additional data file.

[3] = Dog pharmacokinetic study; assay type: in vivo, male beagle dogs; settings: male Beagle
Protocol: 2. […] Food was returned 4 hours after dosing. […] 4. […] Food was returned 4 hours after dosing. […] Supplemental Results:SMYD2 compound characterization […] The […] nM (Figure S8A).

[4] = Hepatocyte stability, human; assay type: in vitro ADME, humans; settings: for hepatocyte CLint at 1 µM: both sexes, human, cryopreserved hepatocytes, read-out: CLint measured with hepatocytes, Human
[5] = in vitro; settings: human
Protocol: (§1) Caco-2 permeability. Caco-2 cells (obtained from the ATCC), between passage numbers 40 to 60, were seeded onto Millipore
(§2) Multiscreen plates at 1x10^5 cells/cm2 in Dulbecco's Modified Eagle Medium. Media was changed every two or three days. On
(§3) Day 20, the permeability study was performed using Hanks Balanced Salt Solution (HBSS) pH 7.4 buffer with 25 mM HEPES and
(§4) Incubations were carried out in an atmosphere of 5% CO2 with a relative humidity of
(§5) The monolayers were prepared by rinsing both basolateral and apical surfaces twice with HBSS at 37°C. Cells were
(§6) then incubated with HBSS in both apical and basolateral compartments for 40 min to stabilize physiological parameters. HBSS
(§7) was then removed from the apical or basolateral compartment and replaced with 10 µM test compound dosing solutions (1% final
(§8) DMSO). The pH of supplemented HBSS was 6.5 and 7.5 in the apical and basolateral compartments, respectively. The apical
(§9) compartment inserts were then placed into ‘companion’ plates containing fresh HBSS.
(§10) removed and apical and basolateral samples diluted for analysis by LC-MS/MS. Permeability was assessed in duplicate, on two
(§11) different occasions. On each plate atenolol and propanolol were run as controls. Compounds were quantified by LC-MS/MS analysis using a 5 point calibration curve. The starting concentration (C0) was determined from the dosing solution and
(§12) experimental recovery calculated from C0 and both apical and basolateral compartment concentrations. The permeability coefficient
(§13) (Papp) for each compound was calculated as: (dQ/dt)/(C0xA), where dQ/dt is the rate of permeation of the drug across the cells, C0
(§14) is the donor compartment concentration at time zero and A is the area of the cell monolayer.
(§15) Plasma protein binding. Plasma protein binding was assessed by equilibrium dialysis utilizing the HT-dialysis cell format with a
(§16) cellulose semi-permeable membrane (molecular weight cut-off of 5000 Da). Solutions of test compounds (1 µM, 0.5% final
(§17) DMSO concentration) were prepared in isotonic phosphate buffer (pH 7.4) and 100% pooled male CD-1 mouse plasma. The
(§18) buffer solution was added to one side of the membrane and the plasma solution to the other side. Incubations were performed in
(§19) Haloperidol was incubated in parallel as the control compound for each species. At the end of the incubation time, samples were taken from both sides of the membrane.
(§20) Following protein precipitation, the samples were analyzed by LC-MS/MS using two sets of calibration standards for protein free
(§21) (7 points) and protein containing solutions (6 points). Samples were quantified using standard curves prepared in the equivalent
(§22) matrix. The fraction unbound in plasma (fu) was calculated using the following equation:
(§23) Where, PC = sample concentration in protein containing side, PF = sample concentration in protein free side, and VCorrection =
(§24) correction factor for the volume shift i.e. ratio of the volume of the protein after dialysis to that before dialysis.

[6] = Mouse pharmacokinetic study; settings: male, CD-1, mouse; for half-life / Vd / clearance / Tmax / bioavailability: plasma
Protocol: Mouse, rat, dog and monkey pharmacokinetic studies. The studies were performed in accordance with the AAALAC International
administered intravenousely (1 mg/kg in saline, tail vein injection, 2 mL/kg) and orally (5 mg/kg in 0.5%
MC/0.1% Tween 80, oral gavage, 10 mL/kg). Animals were weighed prior to dose administration and had free
access to water and food. At pre-specified time intervals up to 24 hours post-dose, blood samples (approximately
30 μL) were collected from saphenous vein into polypropylene micro centrifuge tubes (containing 2 μL of 1000
IU/ml Heparin-Na as anticoagulant) and stored on wet ice until processed to plasma by centrifugation (2000 rpm
for 5 min at 4C) within 30 min of collection. In the same study, urine was collected for 24 hours. For
intravenousely (2 mg/kg in ethanol:saline (10:90) solution, tail vein injection, 2 mL/kg) and orally (100 mg/kg in
ethanol:saline (20:80) solution, oral gavage, 10 mL/kg). Animals were weighed prior to dose administration and

[7] = Hepatocyte stability, rat; assay type: in vitro ADME, SD rats
[8] = biological target: SMYD2 (Homo sapiens, UniProt Q9NRG4); experiment: SMYD2 biochemical methylation assay (3H-SAM, H3,1–29 peptide, flashplate); design: Full length FLAG-SMYD2 and C-terminally Avi-tagged full length SMYD2 (SMYD2-Avi) were cloned into pFastbac vectors; FLAG (N); His tag with TEV cleavage site (N, cleaved yes); made in house; host or cells: Sf9 insect cells (baculovirus)
Protocol: Full length FLAG-SMYD2 and C-terminally Avi-tagged full length SMYD2 (SMYD2-Avi) were cloned into pFastbac vectors containing an N-terminal His tag with TEV cleavage site. Virus production was performed using standard protocols and the proteins were coexpressed in either Sf9 (SMYD2) or Hi Five (SMYD2-Avi) cells. After harvest by centrifugation, cell pellets for both proteins were resuspended, sonicated, and then centrifuged to remove cell debris. Protein was purified using nickel affinity chromatography before and after TEV cleavage in a similar fashion as SMYD3. […] SMYD2-Avi was biotinylated using His-tagged BirA enzyme after dialysis into a low salt buffer and the BirA was removed with a final nickel affinity column. […] SMYD3 assays were performed as previously described using N-terminally GST-tagged MAP3K2 protein substrate. […] Reactions were conducted at room temperature with enzyme and inhibitor incubated for 30 minutes before initiating the reaction with substrates. Dose-response curves were tested in duplicate in each experiment. […] Quenched reactions were transferred to a streptavidin-coated flashplate (Perkin Elmer) for capture of the biotinylated peptide. After 2 h incubation at room temperature, the flashplate was washed once with 0.1% Tween-20 and read on a Perkin Elmer Topcount NXT plate reader. Substrate apparent KM values were determined by measuring the initial velocities (v0) in duplicate while varying one substrate at fixed concentration of the second substrate. […] Percent inhibition by compound (% inh) was calculated from Eq 3 %inh=(1-([…] the signal in the presence of compound and max and min are the signals for the DMSO and background controls respectively. […] Mechanism of inhibition was determined by measuring the inhibitor IC50 values while varying the concentration of one substrate at a fixed concentration of the second substrate equal to its KM value. The inhibition constant Ki was calculated from fitting the IC50 versus varied substrate concentration data using the Cheng-Prusoff equations for mixed-type and noncompetitive inhibition below. α is the coefficient accounting for differences in inhibitor affinity between binding enzyme forms after versus before substrate binding.

[9] = system: Caco-2 cells; experiment: Caco-2 permeability
Protocol: as §1, §2, §3, §4, §5, §6, §7, §8, §9, §10, §11, §12, §13, §14, §15, §16, §17, §18, §19, §20, §21, §22, §23, §24

[10] = Caco-2 permeability; settings: human, 10 µM
Protocol: as §1, §2, §3, §4, §5, §6, §7, §8, §9, §10, §11, §12, §13, §14, §15, §16, §17, §18, §19, §20, §21, §22, §23, §24

[11] = biological target: T1, SMYD3 (Homo sapiens, UniProt Q9H7B4); experiment: SMYD3 biochemical methylation assay (3H-SAM, GST-MAP3K2/MEKK2 substrate); design: Protein purification of both isoforms of full length SMYD3 was performed as previously reported; made in house; settings: tested in duplicate; read-out: selectivity panel result, SMYD3 (off-target)
T1 sequence (Q9H7B4 1-428): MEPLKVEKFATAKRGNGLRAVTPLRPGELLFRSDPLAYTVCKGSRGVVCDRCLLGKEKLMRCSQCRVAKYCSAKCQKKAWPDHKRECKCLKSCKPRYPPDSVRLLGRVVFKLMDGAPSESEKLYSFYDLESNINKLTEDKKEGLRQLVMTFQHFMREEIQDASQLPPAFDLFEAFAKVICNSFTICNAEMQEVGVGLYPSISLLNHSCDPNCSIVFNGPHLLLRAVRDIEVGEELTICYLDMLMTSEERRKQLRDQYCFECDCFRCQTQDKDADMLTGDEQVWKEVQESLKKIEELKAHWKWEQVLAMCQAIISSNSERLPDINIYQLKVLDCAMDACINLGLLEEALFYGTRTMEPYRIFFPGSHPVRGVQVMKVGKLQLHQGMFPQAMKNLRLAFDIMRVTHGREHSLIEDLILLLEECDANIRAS
Protocol: SMYD3 assays were performed as previously described using N-terminally GST-tagged MAP3K2 protein substrate. […] Reactions were conducted at room temperature with enzyme and inhibitor incubated for 30 minutes before initiating the reaction with substrates. Dose-response curves were tested in duplicate in each experiment. […] Quenched reactions were transferred to a streptavidin-coated flashplate (Perkin Elmer) for capture of the biotinylated peptide. After 2 h incubation at room temperature, the flashplate was washed once with 0.1% Tween-20 and read on a Perkin Elmer Topcount NXT plate reader. Substrate apparent KM values were determined by measuring the initial velocities (v0) in duplicate while varying one substrate at fixed concentration of the second substrate.
Mechanism of inhibition was determined by measuring the inhibitor IC50 values while varying the concentration of one substrate at a fixed concentration of the second substrate equal to its KM value.

[12] = Plasma protein binding (equilibrium dialysis), human; settings: pH 7.4, Human fu (unbound fraction)
Protocol: as §1, §2, §3, §4, §5
then incubated with HBSS in both apical and basolateral compartments for 40 min to stabilize physiological parameters. HBSS […]
as §10
different occasions. […] Compounds were quantified by LC-MS/MS analysis using a 5 point calibration curve. The starting concentration (C0) was determined from the dosing solution and
experimental recovery calculated from C0 and both apical and basolateral compartment concentrations. […]
(Papp) for each compound was calculated as: (dQ/dt)/(C0xA), where dQ/dt is the rate of permeation of the drug across the cells, C0 […]
Plasma protein binding. Plasma protein binding was assessed by equilibrium dialysis utilizing the HT-dialysis cell format with a […]

Chain of SMYD2 (Q9NRG4 whole entry): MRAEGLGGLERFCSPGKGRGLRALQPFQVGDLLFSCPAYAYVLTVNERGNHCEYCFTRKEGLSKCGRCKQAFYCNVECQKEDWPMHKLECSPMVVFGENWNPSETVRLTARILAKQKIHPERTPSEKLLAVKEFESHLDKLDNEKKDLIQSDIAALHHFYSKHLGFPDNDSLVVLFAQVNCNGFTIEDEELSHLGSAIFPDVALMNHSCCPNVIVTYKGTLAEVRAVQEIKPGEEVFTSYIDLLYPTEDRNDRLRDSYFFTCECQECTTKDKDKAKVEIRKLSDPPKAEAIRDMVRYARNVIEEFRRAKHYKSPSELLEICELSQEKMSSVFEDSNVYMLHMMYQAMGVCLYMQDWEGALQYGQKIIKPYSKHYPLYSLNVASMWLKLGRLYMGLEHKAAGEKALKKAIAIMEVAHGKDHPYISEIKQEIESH

In the case of NC1CCC(S(=O)(=O)N2C3CCC2CC(NC(=O)c2cc(C4CC4)on2)C3)CC1 [EPZ028862, N-((1R,3R,5S)-8-((1r,4R)-4-aminocyclohexylsulfonyl)-8-aza-bicyclo[3.2.1]octan-3-yl)-5-cyclopropylisoxazole-3-carboxamide hydrochloride], the hepatocyte CLint at 1 µM [1] is reported as 6.6 µL/min/1e6 cells, the “effect of 1 μM EPZ028862 on growth inhibition by trametinib” value [2] is reported as “unaffected; also recorded: no effect” and the MRT ([3]; plasma, IV 1 mg/kg, PO 5 mg/kg) is reported as 7 ± 0.2 h. For the same compound, the bioavailability ([3]; plasma, IV 1 mg/kg, PO 5 mg/kg) was 70 ± 6%, the half-life ([3]; plasma, IV 1 mg/kg, PO 5 mg/kg) was 5.4 ± 0.1 h and the clearance ([3]; plasma, IV 1 mg/kg, read-out: CLp) was 13.9 ± 1.2 mL/min/kg. It also gave a Vd ([3]; plasma, IV 1 mg/kg, read-out: Vss) of 5.8 ± 0.6 L/kg, a Tmax ([3]; plasma, PO 5 mg/kg) of 1.5 ± 0.9 h and a CL renal ([3]; urine and plasma, IV 1 mg/kg) of 1.97 ± 0.38 mL/min/kg. The “CLint measured with hepatocytes, Human” value ([4]; 1 µM) was 3.7 µL/min/106 cells and < 3 µL/min/106 cells, the hepatocyte CLint at 1 µM [4] was 4.8 µL/min/1e6 cells and the Papp A→B at 120 min, 10 µM ([5]; Caco-2, Papp,AB) was 0.46 ×10⁻⁶ cm/s. The Papp B→A at 120 min, 10 µM ([5]; Caco-2, Papp,BA) was 16.4 ×10⁻⁶ cm/s, the half-life [6] was 2 h and the Vd ([6]; iv, 1 mg/kg) was 9.5 L/kg. It also gave a clearance ([6]; iv, 1 mg/kg) of 79.8 mL/min/kg, a Tmax ([6]; po, 5 mg/kg) of 0.33 h and a bioavailability ([6]; po, 5 mg/kg) of about 100%. The CL renal ([6]; urine and plasma, iv, 1 mg/kg) was 23.6 mL/min/kg, the “CLint measured with hepatocytes, Rat” value ([7]; 1 µM) was 3.5 µL/min/106 cells and the hepatocyte CLint at 1 µM ([7]; male, Sprague-Dawley, rat, cryopreserved hepatocytes, read-out: CLint measured with hepatocytes, Rat) was 5.2 µL/min/1e6 cells. For the same compound, the IC50 ([8]; tested in duplicate, read-out: selectivity panel result, SMYD2 (off-target)) was over 10000 nM.
With O=C(NC1CN(Cc2cnn(Cc3ccc(Cl)cc3)c2)C1)c1cn(C2CC2)nn1 [EPZ033294] the hepatocyte CLint at 1 µM [1] was 10.9 µL/min/1e6 cells, the “Caco-2 assay outcome in words” value [9] was “both permeable and an efflux substrate” and the Papp A→B at 120 min, 10 µM ([10]; Caco-2, Papp,AB, apical pH 6.5 / basolateral pH 7.5, 120 min) was 2.18 ×10⁻⁶ cm/s. The Papp B→A at 120 min, 10 µM ([10]; Caco-2, Papp,BA, 120 min) was 64.3 ×10⁻⁶ cm/s, the IC50 [11] was over 10000 nM and the hepatocyte CLint at 1 µM [4] was 6 µL/min/1e6 cells. The half-life [6] was 3.2 ± 1 h, the Vd ([6]; iv, 2 mg/kg) was 4.5 ± 1 L/kg and the clearance ([6]; iv, 2 mg/kg) was 37.4 ± 6.7 mL/min/kg. The bioavailability ([6]; oral, 10 mg/kg) was 241 ± 20%, the Tmax ([6]; po, 10 mg/kg) was 1.7 ± 0.6 h and the “mechanism of inhibition with respect to peptide substrate” value ([8]; 1 nM enzyme, 20 nM SAM, varied H3,1–29) was “noncompetitive”. For the same compound, the IC50 ([8]; IC50 at 20 nM SAM, 1 nM SMYD2, 60 nM H3,1-29, 20 nM SAM) was 2.8 ± 0.4 nM, the IC50 ([8]; IC50 at 200 nM SAM, 1 nM SMYD2, 60 nM H3,1-29, 200 nM SAM) was 3.2 ± 0.5 nM and the “mechanism of inhibition with respect to SAM” value ([8]; IC50 compared at two SAM concentrations differing by 10-fold) was “either noncompetitive or uncompetitive”. The IC50 ([8]; SMYD2, 20 nM SAM, 60 nM H3,1–29 peptide, read-out: Biochemical IC50) was 3.9 nM, the Ki ([8]; varied H3,1–29 peptide, Eq 6, read-out: Ki (noncompetitive versus peptide)) was 3.9 ± 0.4 nM and the fraction unbound at 16 h, 1 µM [12] was 0.13.
